The text below walks through data of ChEMBL document CHEMBL4251595, “Green approach for the synthesis of thiophenyl pyrazoles and isoxazoles by adopting 1,3-dipolar cycloaddition methodology and their antimicrobial activity” (2018).

Structures are written as SMILES. Calls of active or inactive are those of the source. The rule behind the calls is not given here.

Type in all cases: functional
Assay [1] concerns Bacillus subtilis. The assay is described as follows: Antimicrobial activity against Bacillus subtilis assessed as zone of inhibition at 50 ug/well after 24 hrs by agar well diffusion method. Particulars: for zone of inhibition at 50 µg/disc: read-out: DIZ. In general terms: In agar diffusion tests the substance spreads into inoculated agar from a disc or well.
The test system of assay [2] is Pseudomonas aeruginosa. As to the kind of experiment: Antimicrobial activity against Pseudomonas aeruginosa assessed as zone of inhibition at 100 ug/well after 24 hrs by agar well diffusion method. Particulars: for zone of inhibition at 100 µg/disc: read-out: DIZ.
Assay [3] relates to Klebsiella pneumoniae. The assay is described as follows: Antimicrobial activity against Klebsiella pneumoniae assessed as zone of inhibition at 50 ug/well after 24 hrs by agar well diffusion method. The settings on record: for zone of inhibition at 50 µg/disc: read-out: DIZ.
Assay [4] relates to Bacillus subtilis. As to the kind of experiment: Antimicrobial activity against Bacillus subtilis assessed as zone of inhibition at 100 ug/well after 24 hrs by agar well diffusion method. Particulars: for zone of inhibition at 100 µg/disc: read-out: DIZ.
For assay [5], the system named is Klebsiella pneumoniae. The assay is described as follows: Antimicrobial activity against Klebsiella pneumoniae assessed as zone of inhibition at 75 ug/well after 24 hrs by agar well diffusion method. The settings on record: for zone of inhibition at 75 µg/disc: read-out: DIZ.
For assay [6], the system named is Aspergillus niger. As to the kind of experiment: Antifungal activity against Aspergillus niger assessed as zone of inhibition at 75 ug/well after 48 hrs by agar well diffusion method. Particulars: for zone of inhibition at 75 µg/disc: read-out: DIZ.
The test system of assay [7] is Penicillium chrysogenum. The assay is described as follows: Antifungal activity against Penicillium chrysogenum assessed as zone of inhibition at 100 ug/well after 48 hrs by agar well diffusion method. The settings on record: for zone of inhibition at 100 µg/disc: read-out: DIZ.
The test system of assay [8] is Staphylococcus aureus. The assay is described as follows: Antimicrobial activity against Staphylococcus aureus assessed as zone of inhibition at 75 ug/well after 24 hrs by agar well diffusion method. The settings on record: for zone of inhibition at 75 µg/disc: read-out: DIZ.
Assay [9] deals with Staphylococcus aureus. The assay is described as follows: Antimicrobial activity against Staphylococcus aureus assessed as zone of inhibition at 50 ug/well after 24 hrs by agar well diffusion method. The settings on record: for zone of inhibition at 50 µg/disc: read-out: DIZ.
Assay [10] relates to Aspergillus niger. As to the kind of experiment: Antifungal activity against Aspergillus niger assessed as zone of inhibition at 50 ug/well after 48 hrs by agar well diffusion method. Particulars: for zone of inhibition at 50 µg/disc: read-out: DIZ.
The test system of assay [11] is Pseudomonas aeruginosa. As to the kind of experiment: Antimicrobial activity against Pseudomonas aeruginosa assessed as zone of inhibition at 75 ug/well after 24 hrs by agar well diffusion method. The settings on record: for zone of inhibition at 75 µg/disc: read-out: DIZ.
The subject of assay [12] is Penicillium chrysogenum. As to the kind of experiment: Antifungal activity against Penicillium chrysogenum assessed as zone of inhibition at 50 ug/well after 48 hrs by agar well diffusion method.
Assay [13] relates to Klebsiella pneumoniae. As to the kind of experiment: Antimicrobial activity against Klebsiella pneumoniae assessed as zone of inhibition at 100 ug/well after 24 hrs by agar well diffusion method. The settings on record: for zone of inhibition at 100 µg/disc: read-out: DIZ.
Assay [14] deals with Bacillus subtilis. As to the kind of experiment: Antimicrobial activity against Bacillus subtilis assessed as zone of inhibition at 75 ug/well after 24 hrs by agar well diffusion method. The settings on record: for zone of inhibition at 75 µg/disc: read-out: DIZ.
The test system of assay [15] is Penicillium chrysogenum. As to the kind of experiment: Antifungal activity against Penicillium chrysogenum assessed as zone of inhibition at 75 ug/well after 48 hrs by agar well diffusion method. The settings on record: for zone of inhibition at 75 µg/disc: read-out: DIZ.
Assay [16] concerns Aspergillus niger. The assay is described as follows: Antifungal activity against Aspergillus niger assessed as zone of inhibition at 100 ug/well after 48 hrs by agar well diffusion method. The settings on record: for zone of inhibition at 100 µg/disc: read-out: DIZ.
The subject of assay [17] is Staphylococcus aureus. The assay is described as follows: Antimicrobial activity against Staphylococcus aureus assessed as zone of inhibition at 100 ug/well after 24 hrs by agar well diffusion method. Particulars: for zone of inhibition at 100 µg/disc: read-out: DIZ.
Assay [18] concerns Pseudomonas aeruginosa. The assay is described as follows: Antimicrobial activity against Pseudomonas aeruginosa assessed as zone of inhibition at 50 ug/well after 24 hrs by agar well diffusion method.

Consider `Cc1ccc(C2ON=C(c3ccccc3)C2S(=O)(=O)NC(=O)c2ccc(Cl)s2)cc1` (centres undefined), for which the “diameter of the inhibition zone (DIZ)” value with Bacillus subtilis [1], in the assay with Pseudomonas aeruginosa [2], in the assay with Klebsiella pneumoniae [3], with Bacillus subtilis [4], with Klebsiella pneumoniae [5] and in the assay on Aspergillus niger [6] was “inactive” each time. In addition, the “diameter of the inhibition zone (DIZ)” value with Penicillium chrysogenum [7], with Staphylococcus aureus [8], in the assay on Staphylococcus aureus [9], in the assay on Aspergillus niger [10], in the assay with Pseudomonas aeruginosa [11] and with Penicillium chrysogenum [12] was “inactive” each time. Further, the “diameter of the inhibition zone (DIZ)” value in the assay with Klebsiella pneumoniae [13], in the assay with Bacillus subtilis [14], in the assay with Penicillium chrysogenum [15], in the assay on Aspergillus niger [16], in the assay on Staphylococcus aureus [17] and in the assay on Pseudomonas aeruginosa [18] was “inactive” each time.
Regarding `O=C(NS(=O)(=O)C1C(c2ccccc2)=NN(c2ccccc2)C1c1ccc([N+](=O)[O-])cc1)c1cccs1` (centres undefined), the figures for the zone of inhibition at 50 µg/disc in the assay with Bacillus subtilis [1] and in the assay on Klebsiella pneumoniae [3] were 12 mm and 9 mm, respectively. The “diameter of the inhibition zone (DIZ)” value with Pseudomonas aeruginosa [2], in the assay with Staphylococcus aureus [8], with Staphylococcus aureus [9], in the assay with Aspergillus niger [10], in the assay with Pseudomonas aeruginosa [11] and with Penicillium chrysogenum [12] was “inactive” in each case. Also, the “diameter of the inhibition zone (DIZ)” value with Pseudomonas aeruginosa [18] is “inactive”. Further, the zone of inhibition at 100 µg/disc in the assay on Bacillus subtilis [4] came out at 17 mm; in the assay with Penicillium chrysogenum [7] it was 12 mm; in the assay on Klebsiella pneumoniae [13], 13 mm; in the assay with Aspergillus niger [16], 15 mm; in the assay with Staphylococcus aureus [17] it was 9 mm. Also, the zone of inhibition at 75 µg/disc with Klebsiella pneumoniae [5] came out at 11 mm; in the assay on Aspergillus niger [6] it was 12 mm; with Bacillus subtilis [14], 14 mm; in the assay on Penicillium chrysogenum [15] it was 9 mm.
Turning to `O=C(NS(=O)(=O)C1C(c2ccccc2)=NOC1c1ccc([N+](=O)[O-])cc1)c1ccc(Cl)s1` (centres undefined), the zone of inhibition at 50 µg/disc stood at 16 mm in the assay on Bacillus subtilis [1], 9 mm with Klebsiella pneumoniae [3], 13 mm with Staphylococcus aureus [9] and 9 mm in the assay on Aspergillus niger [10]. For the same compound, the “diameter of the inhibition zone (DIZ)” value in the assay on Pseudomonas aeruginosa [2], in the assay on Pseudomonas aeruginosa [11], in the assay with Penicillium chrysogenum [12] and in the assay on Pseudomonas aeruginosa [18] was “inactive” throughout. The zone of inhibition at 100 µg/disc is 21 mm in the assay on Bacillus subtilis [4]; 12 mm with Penicillium chrysogenum [7]; 13 mm in the assay on Klebsiella pneumoniae [13]; 15 mm in the assay on Aspergillus niger [16]; 16 mm in the assay with Staphylococcus aureus [17]. Also, the zone of inhibition at 75 µg/disc stood at 11 mm in the assay on Klebsiella pneumoniae [5]; 12 mm with Aspergillus niger [6]; 14 mm in the assay on Staphylococcus aureus [8]; 19 mm in the assay on Bacillus subtilis [14]; 9 mm in the assay with Penicillium chrysogenum [15].
`O=C(NS(=O)(=O)/C=C/c1ccccc1)c1ccc(Cl)s1`: the zone of inhibition at 50 µg/disc in the assay with Bacillus subtilis [1] turned out to be 22 mm; with Klebsiella pneumoniae [3], 19 mm; in the assay on Staphylococcus aureus [9], 16 mm; in the assay on Aspergillus niger [10], 15 mm; in the assay on Penicillium chrysogenum [12] (read-out: DIZ) it was 10 mm; in the assay with Pseudomonas aeruginosa [18] (read-out: DIZ), 12 mm. In addition, the zone of inhibition at 100 µg/disc in the assay with Pseudomonas aeruginosa [2] was 17 mm; in the assay with Bacillus subtilis [4] it was 27 mm; with Penicillium chrysogenum [7], 17 mm; with Klebsiella pneumoniae [13], 25 mm; in the assay on Aspergillus niger [16] it was 21 mm; in the assay on Staphylococcus aureus [17] it was 21 mm. For the same compound, the zone of inhibition at 75 µg/disc turned out to be 22 mm in the assay on Klebsiella pneumoniae [5]; 17 mm in the assay on Aspergillus niger [6]; 19 mm in the assay on Staphylococcus aureus [8]; 14 mm with Pseudomonas aeruginosa [11]; 24 mm with Bacillus subtilis [14]; 13 mm in the assay on Penicillium chrysogenum [15].
`O=C(NS(=O)(=O)C1C(c2ccccc2)=NN(c2ccccc2)C1c1ccccc1)c1ccc(Cl)s1` (centres undefined): the zone of inhibition at 50 µg/disc in the assay with Bacillus subtilis [1] and in the assay on Aspergillus niger [10] was 8 mm each time. For the same compound, the “diameter of the inhibition zone (DIZ)” value in the assay with Pseudomonas aeruginosa [2], with Klebsiella pneumoniae [3], in the assay with Klebsiella pneumoniae [5], in the assay with Staphylococcus aureus [8], in the assay with Staphylococcus aureus [9] and with Pseudomonas aeruginosa [11] was “inactive” in each case. Besides, the “diameter of the inhibition zone (DIZ)” value in the assay with Penicillium chrysogenum [12], in the assay on Penicillium chrysogenum [15], in the assay on Staphylococcus aureus [17] and with Pseudomonas aeruginosa [18] was “inactive” each time. Further, the zone of inhibition at 100 µg/disc is 15 mm in the assay on Bacillus subtilis [4], 9 mm with Penicillium chrysogenum [7], 11 mm with Klebsiella pneumoniae [13] and 13 mm in the assay on Aspergillus niger [16]. The zone of inhibition at 75 µg/disc with Aspergillus niger [6] and in the assay on Bacillus subtilis [14] was 11 mm throughout.
Turning to `Cc1ccc(C2C(S(=O)(=O)NC(=O)c3ccc(Cl)s3)C(c3ccccc3)=NN2c2ccccc2)cc1` (centres undefined), the “diameter of the inhibition zone (DIZ)” value in the assay with Bacillus subtilis [1], with Pseudomonas aeruginosa [2], in the assay with Klebsiella pneumoniae [3], with Bacillus subtilis [4], in the assay with Klebsiella pneumoniae [5] and in the assay with Aspergillus niger [6] was “inactive” in each case. Moreover, the “diameter of the inhibition zone (DIZ)” value in the assay with Penicillium chrysogenum [7], in the assay on Staphylococcus aureus [8], in the assay on Staphylococcus aureus [9], in the assay on Aspergillus niger [10], in the assay on Pseudomonas aeruginosa [11] and with Penicillium chrysogenum [12] was “inactive” throughout. The “diameter of the inhibition zone (DIZ)” value in the assay on Klebsiella pneumoniae [13], in the assay on Bacillus subtilis [14], with Penicillium chrysogenum [15], with Aspergillus niger [16], in the assay with Staphylococcus aureus [17] and in the assay with Pseudomonas aeruginosa [18] was “inactive” each time.
Consider `Cc1ccc(C2ON=C(c3ccccc3)C2S(=O)(=O)NC(=O)c2cccs2)cc1` (centres undefined), for which the “diameter of the inhibition zone (DIZ)” value in the assay with Bacillus subtilis [1], in the assay on Pseudomonas aeruginosa [2], with Klebsiella pneumoniae [3], in the assay on Bacillus subtilis [4], in the assay on Klebsiella pneumoniae [5] and with Aspergillus niger [6] was “inactive” in each case. The “diameter of the inhibition zone (DIZ)” value in the assay with Penicillium chrysogenum [7], in the assay on Staphylococcus aureus [8], in the assay on Staphylococcus aureus [9], in the assay on Aspergillus niger [10], in the assay on Pseudomonas aeruginosa [11] and in the assay with Penicillium chrysogenum [12] was “inactive” throughout. Further, the “diameter of the inhibition zone (DIZ)” value with Klebsiella pneumoniae [13], in the assay on Bacillus subtilis [14], in the assay with Penicillium chrysogenum [15], with Aspergillus niger [16], in the assay with Staphylococcus aureus [17] and in the assay on Pseudomonas aeruginosa [18] was “inactive” in each case.
On to `Cc1ccc(/C=C/S(=O)(=O)NC(=O)c2cccs2)cc1`, for which the values for the zone of inhibition at 50 µg/disc in the assay on Bacillus subtilis [1] and in the assay with Klebsiella pneumoniae [3] were 13 mm and 12 mm, respectively. For the same compound, the zone of inhibition at 100 µg/disc with Pseudomonas aeruginosa [2] is 9 mm; in the assay on Bacillus subtilis [4] it was 18 mm; in the assay with Penicillium chrysogenum [7], 10 mm; with Klebsiella pneumoniae [13], 16 mm; with Aspergillus niger [16], 12 mm; in the assay with Staphylococcus aureus [17], 12 mm. Besides, the zone of inhibition at 75 µg/disc in the assay with Klebsiella pneumoniae [5] amounted to 13 mm; with Aspergillus niger [6], 8 mm; in the assay with Staphylococcus aureus [8], 11 mm; in the assay on Pseudomonas aeruginosa [11], 7 mm; with Bacillus subtilis [14] it was 15 mm. Moreover, the “diameter of the inhibition zone (DIZ)” value in the assay on Staphylococcus aureus [9], in the assay on Aspergillus niger [10], with Penicillium chrysogenum [12], with Penicillium chrysogenum [15] and in the assay with Pseudomonas aeruginosa [18] was “inactive” each time.
